For 16 molecules, MIC results are on record in patent US11713335B2, “Aminocoumarin compounds and methods of their use” (President and Fellows of Harvard College, priority 2018, dated 2023).

Assay [1] deals with S. aureus RN4220. The experiment in a line: Minimal inhibitory concentration, S. aureus RN4220. In kind it is cell-based. The settings on record: 16 hour minimal inhibitory concentration at 37° C., read-out: MIC (μM) S. aureus RN4220. In outline:
(§1)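 Overnight cultures in LB (TSA for S. aureus) at 37 °C, diluted 1:100 twice, then exposed to twofold serial dilutions of compound from DMSO stock. Plates incubated unshaken 16 h at 37 °C and read at OD600. MIC (µM) is the lowest concentration inhibiting growth.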

For assay [2], the system named is K. pneumoniae 700721. Description: Minimal inhibitory concentration, K. pneumoniae 700721. The format is cell-based. Conditions: 16 hour minimal inhibitory concentration at 37° C., read-out: MIC (μM) K. pneumoniae 700721. In short, it runs like this:
as §1

Assay [3] relates to S. aureus MW2. The experiment in a line: Minimal inhibitory concentration, S. aureus MW2. In kind it is cell-based. The settings on record: 16 hour minimal inhibitory concentration at 37° C., read-out: MIC (μM) S. aureus MW2 (MRSA). In short, it runs like this:
as §1

The subject of assay [4] is A. baumannii 19606. The experiment in a line: Minimal inhibitory concentration, A. baumannii 19606. The format is cell-based. The settings on record: 16 hour minimal inhibitory concentration at 37° C., read-out: MIC (μM) A. baumannii 19606. In short, it runs like this: as §1
Assay [5] relates to E. cloacae 13047. Description: Minimal inhibitory concentration, E. cloacae 13047. The format is cell-based. The settings on record: 16 hour minimal inhibitory concentration at 37° C., read-out: MIC (μM) E. cloacae 13047. In short, it runs like this: as §1
Assay [6] concerns WT E. coli. The experiment in a line: Minimal inhibitory concentration in wild-type E. coli. Conditions: wild-type E. coli, 37° C., 16 hours, read-out: MIC (μM) in WT E. coli. The format is cell-based, Escherichia coli. In outline: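 Broth microdilution: saturated LB overnight culture diluted 1:100 twice, compound serially two-fold diluted across the plate from DMSO stock. Static incubation 16 hours at 37° C, OD600 read; MIC taken as lowest concentration inhibiting growth.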

Assay [7] has as its system E. coli 25922. The experiment in a line: Minimal inhibitory concentration, E. coli 25922. The format is cell-based. The settings on record: 16 hour minimal inhibitory concentration at 37° C., read-out: MIC (μM) E. coli 25922. In outline: as §1
For assay [8], the system named is E. coli MC4100. The experiment in a line: Minimal inhibitory concentration, E. coli MC4100. In kind it is cell-based. Conditions: 16 hour minimal inhibitory concentration at 37° C., read-out: MIC (μM) E. coli MC4100 ara+. In short, it runs like this:
as §1

Setting [9] is: Staphylococcus aureus, RN4220, 16 h.
Setting [10] is: Staphylococcus aureus, MRSA, 16 h.
Where [11] appears, read: Acinetobacter baumannii, 19606, 16 h.

In brackets after ≈: the same amount, converted by molar mass. Read-outs that look alike come from different tables or passages of the source.

The term MIC denotes the lowest concentration found to suppress growth. Consider `CO[C@@H]1[C@@H](OC(N)=O)[C@@H](O)[C@H](Oc2ccc3c(O)c(NC(=O)c4ccc5c(ccn5C)c4)c(=O)oc3c2C)OC1(C)C` [Compound 72], for which the MIC in assay [1] is recorded as 86 µM (≈ 50 µg/mL); in assay [2] it was greater than 100 µM; in assay [3] it was 43 µM (≈ 25 µg/mL); in assay [4], greater than 50 µM; in assay [5] it was greater than 100 µM; in assay [6] it was greater than 300 µM. In addition, the MIC in assay [7] and in assay [8] was greater than 200 µM throughout.
For the molecule `CO[C@@H]1[C@@H](OC(N)=O)[C@@H](O)[C@H](Oc2ccc3c(O)c(NC(=O)c4cccc(-c5cccc(OC(F)(F)F)c5)c4)c(=O)oc3c2C)OC1(C)C` [Compound 58], the MIC is listed as 0.36 µM (≈ 0.248 µg/mL) in assay [1]; greater than 100 µM in assay [2]; 0.18 µM (≈ 0.124 µg/mL) in assay [3]; 18 µM (≈ 12.4 µg/mL) in assay [4]; greater than 100 µM in assay [5]; 89 µM (≈ 61.3 µg/mL) in assay [6]. The MIC was greater than 200 µM in assay [7] and 89 µM (≈ 61.3 µg/mL) in assay [8].
As for `CO[C@@H]1[C@@H](OC(N)=O)[C@@H](O)[C@H](Oc2ccc3c(O)c(NC(=O)c4cccc(N5CCOCC5)c4)c(=O)oc3c2C)OC1(C)C` [Compound 23], the MIC was 82 µM (≈ 50.3 µg/mL) in assay [1] (setting [9]); greater than 100 µM in assay [2] (Klebsiella pneumoniae, 700721); 82 µM (≈ 50.3 µg/mL) in assay [3] (setting [10]); greater than 50 µM in assay [4] (setting [11]); greater than 100 µM in assay [5] (Enterobacter cloacae, 13047); greater than 300 µM in assay [6] (Escherichia coli). In addition, the MIC was greater than 200 µM in assay [7] (Escherichia coli, 25922, 16 h) and greater than 200 µM in assay [8] (Escherichia coli, MC4100, 16 h).
Consider `CO[C@@H]1[C@@H](OC(N)=O)[C@@H](O)[C@H](Oc2ccc3c(O)c(NC(=O)c4cccc(S(F)(F)(F)(F)F)c4)c(=O)oc3c2C)OC1(C)C` [Compound 26], for which the MIC in assay [1] (setting [9]) was greater than 100 µM; in assay [2] (Klebsiella pneumoniae, 700721), greater than 100 µM; in assay [3] (setting [10]), greater than 100 µM; in assay [4] (setting [11]), greater than 50 µM; in assay [5] (Enterobacter cloacae, 13047), greater than 100 µM; in assay [6] (Escherichia coli) it was greater than 300 µM. Further, the MIC is greater than 200 µM in assay [7] (Escherichia coli, 25922, 16 h) and greater than 200 µM in assay [8] (Escherichia coli, MC4100, 16 h).
As to `CO[C@@H]1[C@@H](OC(N)=O)[C@@H](O)[C@H](Oc2ccc3c(O)c(NC(=O)c4cc(-c5ccccc5)cc(-c5ccccc5)c4)c(=O)oc3c2C)OC1(C)C` [Compound 75], the MIC was 18 µM (≈ 12.3 µg/mL) in assay [1]; greater than 100 µM in assay [2]; 9 µM (≈ 6.13 µg/mL) in assay [3]; greater than 50 µM in assay [4]; greater than 100 µM in assay [5]; greater than 300 µM in assay [6]. The MIC in assay [7] and in assay [8] was greater than 200 µM each time.
In the case of `CO[C@@H]1[C@@H](OC(N)=O)[C@@H](O)[C@H](Oc2ccc3c(O)c(NC(=O)c4cccc(-c5ccccn5)c4)c(=O)oc3c2C)OC1(C)C` [Compound 31], the MIC in assay [1] (setting [9]) was 41 µM (≈ 24.8 µg/mL); in assay [2] (Klebsiella pneumoniae, 700721), greater than 100 µM; in assay [3] (setting [10]), 41 µM (≈ 24.8 µg/mL); in assay [4] (setting [11]) it was greater than 50 µM; in assay [5] (Enterobacter cloacae, 13047), greater than 100 µM; in assay [6] (Escherichia coli), greater than 300 µM. In addition, the MIC in assay [7] (Escherichia coli, 25922, 16 h) was greater than 200 µM; in assay [8] (Escherichia coli, MC4100, 16 h) it was greater than 200 µM.
Regarding `CO[C@@H]1[C@@H](OC(N)=O)[C@@H](O)[C@H](Oc2ccc3c(O)c(NC(=O)c4cc(-c5ccccc5)c(OCc5ccccc5)cc4OCc4ccccc4)c(=O)oc3c2C)OC1(C)C` [Compound 66], the MIC in assay [1] was greater than 100 µM; in assay [2], greater than 100 µM; in assay [3] it was greater than 100 µM; in assay [4], greater than 50 µM; in assay [5], greater than 100 µM; in assay [6], greater than 300 µM. Also, the minimal inhibitory concentration (MIC) in assay [7] and in assay [8] was greater than 200 µM each time.
For `CO[C@@H]1[C@@H](OC(N)=O)[C@@H](O)[C@H](Oc2ccc3c(O)c(NC(=O)c4ccc(C#Cc5ccccc5)cc4)c(=O)oc3c2C)OC1(C)C` [Compound 76], the MIC in assay [1] was 5 µM (≈ 3.14 µg/mL); in assay [2], greater than 100 µM; in assay [3], 3 µM (≈ 1.89 µg/mL); in assay [4] it was 40 µM (≈ 25.1 µg/mL); in assay [5] it was greater than 100 µM; in assay [6], 40 µM (≈ 25.1 µg/mL). The MIC is 80 µM (≈ 50.3 µg/mL) in assay [7] and 40 µM (≈ 25.1 µg/mL) in assay [8].
In the case of `CO[C@@H]1[C@@H](OC(N)=O)[C@@H](O)[C@H](Oc2ccc3c(O)c(NC(=O)c4ccc(C5CCCCC5)cc4)c(=O)oc3c2C)OC1(C)C` [Compound 41], the MIC in assay [1] (setting [9]) is 20 µM (≈ 12.2 µg/mL); in assay [2] (Klebsiella pneumoniae, 700721) it was greater than 100 µM; in assay [3] (setting [10]), 20 µM (≈ 12.2 µg/mL); in assay [4] (setting [11]) it was greater than 50 µM; in assay [5] (Enterobacter cloacae, 13047), greater than 100 µM; in assay [6] (Escherichia coli) it was greater than 300 µM. Further, the MIC was greater than 200 µM in assay [7] (Escherichia coli, 25922, 16 h) and greater than 200 µM in assay [8] (Escherichia coli, MC4100, 16 h).
`CO[C@@H]1[C@@H](OC(N)=O)[C@@H](O)[C@H](Oc2ccc3c(O)c(NC(=O)c4ccc5ccn(C)c5c4)c(=O)oc3c2C)OC1(C)C` [Compound 70]: the MIC is recorded as 86 µM (≈ 50 µg/mL) in assay [1]; greater than 100 µM in assay [2]; 43 µM (≈ 25 µg/mL) in assay [3]; greater than 50 µM in assay [4]; greater than 100 µM in assay [5]; greater than 300 µM in assay [6]. Also, the MIC in assay [7] and in assay [8] was greater than 200 µM each time.
With `COc1ccc(-c2cccc(C(=O)Nc3c(O)c4ccc(O[C@@H]5OC(C)(C)[C@H](OC)[C@@H](OC(N)=O)[C@H]5O)c(C)c4oc3=O)c2)cc1` [Compound 46], the MIC is 5 µM (≈ 3.17 µg/mL) in assay [1] (setting [9]); greater than 100 µM in assay [2] (Klebsiella pneumoniae, 700721); 3 µM (≈ 1.9 µg/mL) in assay [3] (setting [10]); greater than 50 µM in assay [4] (setting [11]); greater than 100 µM in assay [5] (Enterobacter cloacae, 13047); greater than 300 µM in assay [6] (Escherichia coli). The MIC in assay [7] (Escherichia coli, 25922, 16 h) was greater than 200 µM; in assay [8] (Escherichia coli, MC4100, 16 h), greater than 200 µM.
For `CO[C@@H]1[C@@H](OC(N)=O)[C@@H](O)[C@H](Oc2ccc3c(O)c(NC(=O)c4cccc(-c5ccccc5OC(F)(F)F)c4)c(=O)oc3c2C)OC1(C)C` [Compound 59], the MIC in assay [1] was 9 µM (≈ 6.2 µg/mL); in assay [2] it was greater than 100 µM; in assay [3], 5 µM (≈ 3.44 µg/mL); in assay [4], greater than 50 µM; in assay [5] it was greater than 100 µM; in assay [6] it was 40 µM (≈ 27.5 µg/mL). In addition, the MIC is greater than 200 µM in assay [7] and 40 µM (≈ 27.5 µg/mL) in assay [8].
With `CO[C@@H]1[C@@H](OC(N)=O)[C@@H](O)[C@H](Oc2ccc3c(O)c(NC(=O)c4ccc(O)c(C/C=C/C(=O)O)c4)c(=O)oc3c2C)OC1(C)C` [Compound 82], the MIC in assay [1] is on record as greater than 100 µM; in assay [2], greater than 100 µM; in assay [3] it was greater than 100 µM; in assay [4], greater than 50 µM; in assay [5], greater than 100 µM; in assay [6], greater than 300 µM. The MIC in assay [7] and in assay [8] was greater than 200 µM throughout.
`CO[C@@H]1[C@@H](OC(N)=O)[C@@H](O)[C@H](Oc2ccc3c(O)c(NC(=O)c4ccccc4)c(=O)oc3c2C)OC1(C)C` [Compound 8]: the MIC in assay [1] is on record as greater than 100 µM; in assay [2], greater than 100 µM; in assay [3], greater than 100 µM; in assay [4], greater than 50 µM; in assay [5], greater than 100 µM; in assay [6], greater than 300 µM. Besides, the minimum inhibitory concentration (MIC) in assay [7] and in assay [8] was greater than 200 µM throughout.
On to `CO[C@@H]1[C@@H](OC(N)=O)[C@@H](O)[C@H](Oc2ccc3c(O)c(NC(=O)c4ccc5ccccc5c4)c(=O)oc3c2C)OC1(C)C` [Compound 4], for which the MIC is 22 µM (≈ 12.7 µg/mL) in assay [1] (setting [9]); greater than 100 µM in assay [2] (Klebsiella pneumoniae, 700721); 22 µM (≈ 12.7 µg/mL) in assay [3] (setting [10]); greater than 50 µM in assay [4] (setting [11]); greater than 100 µM in assay [5] (Enterobacter cloacae, 13047); greater than 300 µM in assay [6] (Escherichia coli). Further, the MIC in assay [7] (Escherichia coli, 25922, 16 h) is greater than 200 µM; in assay [8] (Escherichia coli, MC4100, 16 h), greater than 200 µM.
As for `CO[C@@H]1[C@@H](OC(N)=O)[C@@H](O)[C@H](Oc2ccc3c(O)c(NC(=O)c4ccc(O)c(-c5cccc6ccccc56)c4)c(=O)oc3c2C)OC1(C)C` [Compound 93], the MIC is listed as 37 µM (≈ 24.8 µg/mL) in assay [1]; greater than 100 µM in assay [2]; 19 µM (≈ 12.7 µg/mL) in assay [3]; greater than 50 µM in assay [4]; greater than 100 µM in assay [5]; 75 µM (≈ 50.3 µg/mL) in assay [6]. The MIC in assay [7] is listed as greater than 200 µM; in assay [8] it was 75 µM (≈ 50.3 µg/mL).
